Assay results as given in patent publication US6509163B1, “Methods of screening modulators of mammalian P2X7 purinergic receptors” (Glaxo Group Limited, priority 1997, dated 2003).

Tests used:
Type in all cases: cell-based
P2X7ΔC receptor = molecular target: T1, P2X7ΔC receptor (Rattus norvegicus, UniProt Q64663); experiment: YO-PRO-1 uptake in HEK cells expressing P2X7ΔC receptor; conditions: low divalent solution, BzATP 300 μM
T1 construct: the resulting protein (P2X7ΔC) was P2X7 (1-418); expressed in transfected cells; host or cells: HEK293 (transient)
T1 sequence (Q64663 1-418): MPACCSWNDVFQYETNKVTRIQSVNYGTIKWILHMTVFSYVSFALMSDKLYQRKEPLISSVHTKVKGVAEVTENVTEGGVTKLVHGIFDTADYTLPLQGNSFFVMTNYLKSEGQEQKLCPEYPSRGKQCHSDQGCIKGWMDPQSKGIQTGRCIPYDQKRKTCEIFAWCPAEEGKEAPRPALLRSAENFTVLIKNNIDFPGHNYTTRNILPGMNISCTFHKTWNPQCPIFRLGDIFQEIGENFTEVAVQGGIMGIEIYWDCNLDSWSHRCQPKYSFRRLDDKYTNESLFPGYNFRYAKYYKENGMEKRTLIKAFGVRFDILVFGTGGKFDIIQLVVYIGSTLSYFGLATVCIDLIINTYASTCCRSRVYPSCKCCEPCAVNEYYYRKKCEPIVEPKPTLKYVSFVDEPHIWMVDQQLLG
Procedure: YO-PRO-1 (10 μM; Molecular Probes, Eugene, Oreg.) was added to the superfusion fluid during electrophysiological recordings 3 to 6 min before switching to low divalent solution and washed out upon switching back to normal divalent solution, after which the fluorescent lamp was turned on and cells were examined with a fluorescein isothiocyanate filter. For cell counts, 500 cells per cover slip were counted in each case.

[1] = molecular target: T2, h-rP2X7 (human 1-346, rat 347-595) (Homo sapiens, UniProt Q99572, A348T/A433Q/A445S/A505Q/C493A/C552S/D356N/D438E/D448H/D537E/D539E/E585Q/F350C/F353L/F525L/G559V/H366R/H491R/H521E/I367V/I459M/K464I/K501R/L354I/L516I/M434T/N361T/N413D/P443S/Q375E/R410W/R419K/R463Q/R514S/R544K/R576K/S359A/S390P/S407P/S481N/S490N/S540A/S584T/S593Y/T437L/T449S/T467V/T541I/V378A/V475D/V522A/V538G/W370S); experiment: Whole-cell recordings in HEK293 cells expressing chimeric h-rP2X7 receptors; conditions: low divalent concentrations, after removal of BzATP, n=10
T2 construct: h-rP2X7 (human 1-346, rat 347-595); expressed in transfected cells; host or cells: HEK293 (transient)
T2 sequence (Q99572 1-595 A348T/F350C/F353L/L354I/D356N/S359A/N361T/H366R/I367V/W370S/Q375E/V378A/S390P/S407P/R410W/N413D/R419K/A433Q/M434T/T437L/D438E/P443S/A445S/D448H/T449S/I459M/R463Q/K464I/T467V/V475D/S481N/S490N/H491R/C493A/K501R/A505Q/R514S/L516I/H521E/V522A/F525L/D537E/V538G/D539E/S540A/T541I/R544K/C552S/G559V/R576K/S584T/E585Q/S593Y): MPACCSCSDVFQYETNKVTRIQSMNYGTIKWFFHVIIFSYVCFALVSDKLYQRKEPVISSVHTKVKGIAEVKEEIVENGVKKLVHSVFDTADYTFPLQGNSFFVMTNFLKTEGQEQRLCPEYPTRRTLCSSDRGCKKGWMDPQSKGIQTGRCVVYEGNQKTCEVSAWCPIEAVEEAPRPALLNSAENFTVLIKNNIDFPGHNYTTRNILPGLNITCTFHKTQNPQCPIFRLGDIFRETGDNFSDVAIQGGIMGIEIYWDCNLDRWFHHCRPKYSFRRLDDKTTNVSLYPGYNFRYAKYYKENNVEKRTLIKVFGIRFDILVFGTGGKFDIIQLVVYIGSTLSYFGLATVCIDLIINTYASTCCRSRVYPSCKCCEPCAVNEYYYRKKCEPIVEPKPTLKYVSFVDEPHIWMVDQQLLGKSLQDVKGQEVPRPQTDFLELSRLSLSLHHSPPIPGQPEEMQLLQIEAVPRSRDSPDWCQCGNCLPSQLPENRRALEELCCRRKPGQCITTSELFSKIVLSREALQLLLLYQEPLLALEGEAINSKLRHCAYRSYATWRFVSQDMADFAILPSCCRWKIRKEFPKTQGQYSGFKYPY
From the text: Chimeras. A silent restriction site (NheI) was introduced at the equivalent positions in the rat and human cDNAs using the Pfu mutagenesis kit (Stratagene) (T to G at 1069 in rP2X7; G to A at 1072 in hP2X7) . A NheI-XhoI fragment corresponding to 3′ extremity of each cDNA was then excised and subcloned in the opposite plasmid (i.e. human 3′ end into rat background). The resulting chimeras were h-rP2X7 (human 1-346, rat 347-595) and r-hP2X7 (rat 1-346, human 347-595) (FIG. 5). All constructions were sequenced on their entire coding region.
Cell culture. HEK293 cells were transiently transfected with cDNA (1 μg/ml) and lipofectin dissolved in Optimem (GIBCO) placed into petri dishes containing four coverslips onto which cells were plated at a density of about 8×10^4/coverslip. Cells were washed 5 h later and normal DMEM applied. Electrophysiological studies or dye uptake measurements were carried out 18-49 h later. For each set of transfections, parallel experiments were performed on HEK cells transfected with cDNA encoding both rP2X7 and hP2X7 receptors.
Electrophysiological experiments. Whole-cell recordings were made using the EPC9 patch-clamp amplifier and Pulse acquisition programs (HEKA, Lambrecht, Germany). Patch pipettes (5-7 MΩ) contained (mM) CsCl or NaCl 154, EGTA 10, HEPES 5. […]

P2X7 receptor = molecular target: T3, P2X7 receptor (Rattus norvegicus, UniProt Q64663); experiment: Whole-cell recordings of agonist-evoked currents in HEK293 cells transfected with rat P2X7 cDNA (Example 2); conditions: inward currents, brief application (0.5 to 2 s)
T3 construct: yielding a construct that encoded the entire P2X7 protein; expressed in transfected cells
T3 sequence (Q64663 1-595): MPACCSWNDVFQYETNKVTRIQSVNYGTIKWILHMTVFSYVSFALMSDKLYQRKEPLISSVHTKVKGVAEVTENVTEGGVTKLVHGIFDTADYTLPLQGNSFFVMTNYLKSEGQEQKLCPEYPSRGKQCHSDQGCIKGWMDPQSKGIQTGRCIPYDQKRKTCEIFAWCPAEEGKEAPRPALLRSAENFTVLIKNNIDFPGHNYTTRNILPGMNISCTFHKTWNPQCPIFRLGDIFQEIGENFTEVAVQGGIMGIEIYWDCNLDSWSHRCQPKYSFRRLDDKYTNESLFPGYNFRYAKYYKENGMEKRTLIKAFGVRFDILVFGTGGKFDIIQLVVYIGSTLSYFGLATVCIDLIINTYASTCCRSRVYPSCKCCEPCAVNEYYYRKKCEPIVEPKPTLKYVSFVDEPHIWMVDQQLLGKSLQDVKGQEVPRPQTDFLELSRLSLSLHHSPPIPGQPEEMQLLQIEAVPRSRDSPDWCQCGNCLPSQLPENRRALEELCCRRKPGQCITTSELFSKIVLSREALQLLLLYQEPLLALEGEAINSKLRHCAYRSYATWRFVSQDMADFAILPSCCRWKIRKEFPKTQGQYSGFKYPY

- uptake of YO-PRO-1 induced by BzATP (P2X7ΔC receptor): no uptake of YO-PRO-1 was induced
- current measured at 30 s, of peak [1]: 70±4
- agonist order of potency (P2X7 receptor): BzATP>>ATP>2MeSATP>ATP-γ-S>>ADP
SMILES: Nc1ncnc2c1ncn2[C@@H]1O[C@H](COP(=O)(O)OP(=O)(O)OP(=O)(O)O)[C@@H](OC(=O)c2ccc(C(=O)c3ccccc3)cc2)[C@H]1O [BzATP, 3′-O-(4-benzoyl)benzoyl ATP]
